The values below are quoted from earlier work in paper PMC5381245 (Theranostics, 2017).

This data set has as its system tumor. To be noted: 2 h p.i.

Take “^111In-DOTA-GlyGly-Nle-CycMSHhex (sidechain bridge or staple)”: the tumor-to-kidney uptake ratio is reported as 2.8.

As for “NOTA-GlyGly-Nle-CycMSHhex (sidechain bridge or staple) [^64Cu-labeled NOTA-GlyGly-Nle-CycMSHhex]”, the tumor uptake is listed as 13.4 ± 1.6 %ID/g.

Turning to “^111In-DOTA-Nle-CycMSHhex (sidechain bridge or staple)”, the tumor uptake is reported as 19.4 ± 1.7 %ID/g and the tumor-to-kidneys uptake ratio was 2.0.
